# “And” between values parts separate entries of the source, which are not always exact repeats. Identical values can stand only once.
# Test system: hypoxia induced PAP increase in conscious dogs
# Experiment: Haemodynamics in conscious hypoxia challenged dogs (C-2.2)
# Format: in vivo, dog
# Design: PAP, absolute values for each animal: unit: mmHg
# Settings: for mPAP decrease during Hypoxia, each animal / mPAP decrease during Hypoxia, mean +/− SEM: n = 3
# Protocol: Experiments were carried out in anesthetized Göttingen minipigs, anesthetized rats and conscious, telemetrically instrumented dogs. Acute pulmonary hypertension was induced for example by infusion of a thromboxane A2 analogon, by acute hypoxia treatment or hypoxia treatment over a number of weeks and/or by administration of monocrotaline. Test substances were applied via nebulization using the Nebutec® or Aeroneb® Pro nebulizer system, and/or by means of powder and/or solution applicators for experimental intratracheal administration (Liquid MicroSprayer®, Dry Powder Insufflator™, MicroSprayer®, Penn-Century Inc., Wyndmoor, PA, USA) or after solid nebulization inserted into the inspiration arm of the ventilation. Compounds were employed as solids or solutions depending on the molecular structure and the technical possibility depending on the experiment. The haemodynamic signals were recorded and evaluated by means of pressure transducers/amplifiers (Combitransducer B. Braun, Melsungen, Germany or CardioMEMS Inc., Atlanta, GA, USA) and Ponemah® or CardioMems® as data aquisition software. After long-term experiments (for example monocrotaline rat), it is also possible to carry out a histological evaluation.
# We evaluated the lung-selectivity and duration of effects of comparative example 11 under conscious conditions, in another species, and under a more physiological stimulus for PAP increase. Dogs were exposed to hypoxia for 30 minutes to induce a hypoxia-mediated PAP increase and comparative example 11 (100 μg/kg nominal dose) was applied by inhalation 1, 5, 12, 16 and 24 hours before hypoxia.
# The hypoxic dog model was also used to compare different drug candidates wrt duration of action under conscious conditions.
# [1] = 100 μg/kg nominal dose inhaled, 1-2 h post inhalation
# [2] = 100 μg/kg nominal dose inhaled, 5-6 h post inhalation
# [3] = 100 μg/kg nominal dose inhaled, 12-13 h post inhalation
# [4] = 100 μg/kg nominal dose inhaled, 16-17 h post inhalation
# [5] = 100 μg/kg nominal dose inhaled, 24-25 h post inhalation
smiles,measurement,setting,value
"O=C(O)c1ccc(CCN(CCc2cc(F)ccc2OCc2ccc(-c3nc4cc(Cl)ccc4o3)cc2)C2CCCc3nc(C(=O)O)ccc32)cc1 (single isomer, unassigned) [comparative example 4, 5-{[2-(4-Carboxyphenyl)ethyl][2-(2-{[4-(5-chloro-1,3-benzoxazol-2-yl)benzyl]oxy}-5-fluorophenyl)-ethyl]amino}-5,6,7,8-tetrahydroquinoline-2-carboxylic acid]","PAP, absolute values for each animal","100 μg/kg nominal dose inhaled 1 h before hypoxia, time 4 min",9 and 15 and 10
same,"PAP, absolute values for each animal","100 μg/kg nominal dose inhaled 1 h before hypoxia, time 6 min",9 and 14 and 11
same,"PAP, absolute values for each animal","100 μg/kg nominal dose inhaled 1 h before hypoxia, time 8 min",10 and 14 and 11
same,"PAP, absolute values for each animal","100 μg/kg nominal dose inhaled 16 h before hypoxia, time 22 min",23 and 26 and 13
same,"PAP, absolute values for each animal","100 μg/kg nominal dose inhaled 16 h before hypoxia, time 24 min",23 and 26 and 14
same,"PAP, absolute values for each animal","100 μg/kg nominal dose inhaled 16 h before hypoxia, time 26 min",21 and 32 and 15
same,"PAP, absolute values for each animal","100 μg/kg nominal dose inhaled 16 h before hypoxia, time 28 min",22 and 29 and 17
same,"PAP, absolute values for each animal","100 μg/kg nominal dose inhaled 16 h before hypoxia, time 30 min",26 and 31 and 18
same,"PAP, absolute values for each animal","100 μg/kg nominal dose inhaled 16 h before hypoxia, time 32 min",24 and 29 and 16
same,"PAP, absolute values for each animal","100 μg/kg nominal dose inhaled 16 h before hypoxia, time 34 min",23 and 32 and 21
same,"PAP, absolute values for each animal","100 μg/kg nominal dose inhaled 16 h before hypoxia, time 36 min",20 and 29 and 19
same,"PAP, absolute values for each animal","100 μg/kg nominal dose inhaled 16 h before hypoxia, time 38 min",25 and 29 and 12
same,"PAP, absolute values for each animal","100 μg/kg nominal dose inhaled 16 h before hypoxia, time 40 min",25 and 30 and 22
same,"PAP, absolute values for each animal","100 μg/kg nominal dose inhaled 16 h before hypoxia, time 42 min",12 and 21 and 8
same,"PAP, absolute values for each animal","100 μg/kg nominal dose inhaled 16 h before hypoxia, time 44 min",9 and 17 and 7
same,"PAP, absolute values for each animal","100 μg/kg nominal dose inhaled 16 h before hypoxia, time 46 min",9 and 16 and 8
same,"PAP, absolute values for each animal","100 μg/kg nominal dose inhaled 16 h before hypoxia, time 48 min",6 and 16 and 8
same,"PAP, absolute values for each animal","100 μg/kg nominal dose inhaled 16 h before hypoxia, time 50 min",6 (2×) and 15
same,"PAP, absolute values for each animal","100 μg/kg nominal dose inhaled 24 h before hypoxia, time 0 min",10 and 16 and 15
same,"PAP, absolute values for each animal","100 μg/kg nominal dose inhaled 24 h before hypoxia, time 2 min",12 and 16 and 17
same,"PAP, absolute values for each animal","100 μg/kg nominal dose inhaled 24 h before hypoxia, time 4 min",10 and 15 and 16
same,"PAP, absolute values for each animal","100 μg/kg nominal dose inhaled 24 h before hypoxia, time 6 min",10 and 13 and 14
same,"PAP, absolute values for each animal","100 μg/kg nominal dose inhaled 24 h before hypoxia, time 8 min",9 and 14 and 12
same,"PAP, absolute values for each animal","100 μg/kg nominal dose inhaled 24 h before hypoxia, time 10 min",10 and 15 and 14
same,"PAP, absolute values for each animal","100 μg/kg nominal dose inhaled 24 h before hypoxia, time 12 min",18 and 22 and 14
same,"PAP, absolute values for each animal","100 μg/kg nominal dose inhaled 24 h before hypoxia, time 14 min",18 and 19 and 15
same,"PAP, absolute values for each animal","100 μg/kg nominal dose inhaled 24 h before hypoxia, time 16 min",20 and 23 and 17
same,"PAP, absolute values for each animal","100 μg/kg nominal dose inhaled 24 h before hypoxia, time 18 min",23 and 25 and 17
same,"PAP, absolute values for each animal","100 μg/kg nominal dose inhaled 24 h before hypoxia, time 20 min",23 and 24 and 21
same,"PAP, absolute values for each animal","100 μg/kg nominal dose inhaled 24 h before hypoxia, time 22 min",22 and 26 and 17
same,"PAP, absolute values for each animal","100 μg/kg nominal dose inhaled 24 h before hypoxia, time 24 min",24 and 25 and 18
same,"PAP, absolute values for each animal","100 μg/kg nominal dose inhaled 24 h before hypoxia, time 26 min",23 and 25 and 19
same,"PAP, absolute values for each animal","100 μg/kg nominal dose inhaled 24 h before hypoxia, time 28 min",22 and 27 and 18
same,"PAP, absolute values for each animal","100 μg/kg nominal dose inhaled 24 h before hypoxia, time 30 min",23
same,"efficacy (PAP decrease), head to head","100 μg/kg nominal dose inhaled, up to 6 hrs after inhalation",comparable efficacy
same,"mPAP decrease during Hypoxia, each animal",[1],−11.69 mmHg and −10.19 mmHg and −11.38 mmHg
same,"mPAP decrease during Hypoxia, mean +/− SEM",[1],−11.08 ± 0.46 mmHg
same,"mPAP decrease during Hypoxia, each animal",[2],−14.81 mmHg and −6.69 mmHg and −8.00 mmHg
same,"mPAP decrease during Hypoxia, mean +/− SEM",[2],−9.83 ± 2.52 mmHg
same,"mPAP decrease during Hypoxia, each animal",[3],−0.50 mmHg and −4.63 mmHg and −0.56 mmHg
same,"mPAP decrease during Hypoxia, mean +/− SEM",[3],−1.90 ± 1.36 mmHg
same,"mPAP decrease during Hypoxia, each animal",[4],0.81 mmHg and −0.56 mmHg and −1.06 mmHg
same,"mPAP decrease during Hypoxia, mean +/− SEM",[4],−0.27 ± 0.56 mmHg
same,"mPAP decrease during Hypoxia, each animal",[5],−2.56 mmHg and −3.13 mmHg and −2.25 mmHg
same,"mPAP decrease during Hypoxia, mean +/− SEM",[5],−2.65 ± 0.26 mmHg

# Source: US12138256B2, “Treatment of cardiopulmonary disorders” (Bayer Aktiengesellschaft, priority 2021, dated 2024)
